# Results reported in ChEMBL document CHEMBL4359931, “Synthesis, biological evaluation and molecular docking studies of new amides of 4-bromothiocolchicine as anticancer agents” (Bioorg Med Chem, 2019).
# The source made the active and inactive calls. The calls are words filed in the database; no cut-off is given here.
# What was measured:
# [1] = Antiproliferative activity against human ALL5 cells assessed as reduction in cell viability incubated for 120 hrs by MTT assay; type: functional, cell-based; conditions: ALL5, 120 h
# A549 = assay: Antiproliferative activity against human A549 cells assessed as reduction in cell viability incubated for 120 hrs by MTT assay; type: functional, cell-based; conditions: A549, 120 h
# MCF7 [2] = assay: Antiproliferative activity against human MCF7 cells assessed as reduction in cell viability incubated for 120 hrs by MTT assay; type: functional, cell-based; conditions: MCF7, 120 h
# LoVo = assay: Antiproliferative activity against human LoVo cells assessed as reduction in cell viability incubated for 120 hrs by MTT assay; type: functional, cell-based
# [3] = Antiproliferative activity against human LoVo/DX cells assessed as reduction in cell viability incubated for 120 hrs by MTT assay; type: functional, cell-based
# BALB/3T3 = assay: Antiproliferative activity against mouse BALB/3T3 cells assessed as reduction in cell viability incubated for 120 hrs by MTT assay; type: cell-based; conditions: BALB/3T3, 120 h
# [4] = Selectivity index, ratio of IC50 of mouse BALB/3T3 cells to IC50 of human ALL5 cells
# [5] = Selectivity index, ratio of IC50 of mouse BALB/3T3 cells to IC50 of human A549 cells
# [6] = Selectivity index, ratio of IC50 of mouse BALB/3T3 cells to IC50 of human MCF7 cells; type: toxicity; conditions: BALB/3T3 cells versus MCF7 cells, read-out: Ratio IC50
# [7] = Selectivity index, ratio of IC50 of mouse BALB/3T3 cells to IC50 of human LoVo cells; type: toxicity; conditions: BALB/3T3 cells versus LoVo cells, read-out: Ratio IC50
# [8] = Selectivity index, ratio of IC50 of mouse BALB/3T3 cells to IC50 of human LoVo/DX cells; type: toxicity; conditions: BALB/3T3 cells versus LoVo/DX cells, read-out: Ratio IC50
# [9] = Resistance index, ratio of IC50 of human LoVo/DX cells to IC50 of human LoVo cells; type: functional
# [10] = Cell cycle arrest in human ALL5 cells assessed as accumulation in G2 phase at 5 times of antiproliferative IC50 incubated for 24 hrs by propidium iodide based flow cytometry (reference value: 10.6 %); type: functional
# [11] = Cell cycle arrest in human ALL5 cells assessed as accumulation in G2 phase at 5 times of antiproliferative IC50 incubated for 48 hrs by propidium iodide based flow cytometry (reference value: 11.2 %); type: functional
# [12] = Cell cycle arrest in human ALL5 cells assessed as accumulation in G2 phase at 5 times of antiproliferative IC50 incubated for 72 hrs by propidium iodide based flow cytometry (reference value: 11.3 %); type: functional
# [13] = Cell cycle arrest in human ALL5 cells assessed as accumulation in G1 phase at 5 times of antiproliferative IC50 incubated for 24 hrs by propidium iodide based flow cytometry (reference value: 68.1 %); type: functional
# [14] = Cell cycle arrest in human ALL5 cells assessed as accumulation in G1 phase at 5 times of antiproliferative IC50 incubated for 48 hrs by propidium iodide based flow cytometry (reference value: 67.4 %); type: functional
# [15] = Cell cycle arrest in human ALL5 cells assessed as accumulation in G1 phase at 5 times of antiproliferative IC50 incubated for 72 hrs by propidium iodide based flow cytometry (reference value: 59.7 %); type: functional
# [16] = Cell cycle arrest in human ALL5 cells assessed as accumulation in subG1 phase at 5 times of antiproliferative IC50 incubated for 24 hrs by propidium iodide based flow cytometry (reference value: 10.5 %); type: functional
# [17] = Cell cycle arrest in human ALL5 cells assessed as accumulation in subG1 phase at 5 times of antiproliferative IC50 incubated for 48 hrs by propidium iodide based flow cytometry (reference value: 11 %); type: functional
# [18] = Cell cycle arrest in human ALL5 cells assessed as accumulation in subG1 phase at 5 times of antiproliferative IC50 incubated for 72 hrs by propidium iodide based flow cytometry (reference value: 15.5 %); type: functional
# MCF7 [19] = assay: Cell cycle arrest in human MCF7 cells assessed as accumulation in G2 phase at 5 times of antiproliferative IC50 incubated for 24 hrs by propidium iodide based flow cytometry (reference value: 22.4 %); type: functional
# MCF7 [20] = assay: Cell cycle arrest in human MCF7 cells assessed as accumulation in G2 phase at 5 times of antiproliferative IC50 incubated for 48 hrs by propidium iodide based flow cytometry (reference value: 16 %); type: functional
# MCF7 [21] = assay: Cell cycle arrest in human MCF7 cells assessed as accumulation in G2 phase at 5 times of antiproliferative IC50 incubated for 72 hrs by propidium iodide based flow cytometry (reference value: 18.6 %); type: functional
# MCF7 [22] = assay: Cell cycle arrest in human MCF7 cells assessed as accumulation in G1 phase at 5 times of antiproliferative IC50 incubated for 24 hrs by propidium iodide based flow cytometry (reference value: 49.9 %); type: functional
# MCF7 [23] = assay: Cell cycle arrest in human MCF7 cells assessed as accumulation in G1 phase at 5 times of antiproliferative IC50 incubated for 48 hrs by propidium iodide based flow cytometry (reference value: 40.8 %); type: functional
# MCF7 [24] = assay: Cell cycle arrest in human MCF7 cells assessed as accumulation in G1 phase at 5 times of antiproliferative IC50 incubated for 72 hrs by propidium iodide based flow cytometry (reference value: 58 %); type: functional
# MCF7 [25] = assay: Cell cycle arrest in human MCF7 cells assessed as accumulation in subG1 phase at 5 times of antiproliferative IC50 incubated for 24 hrs by propidium iodide based flow cytometry (reference value: 7.79 %); type: functional
# MCF7 [26] = assay: Cell cycle arrest in human MCF7 cells assessed as accumulation in subG1 phase at 5 times of antiproliferative IC50 incubated for 48 hrs by propidium iodide based flow cytometry (reference value: 9.19 %); type: functional
# MCF7 [27] = assay: Cell cycle arrest in human MCF7 cells assessed as accumulation in subG1 phase at 5 times of antiproliferative IC50 incubated for 72 hrs by propidium iodide based flow cytometry (reference value: 3.59 %); type: functional
# MCF7 [28] = assay: Cell cycle arrest in human MCF7 cells assessed as accumulation in S phase at 5 times of antiproliferative IC50 incubated for 24 hrs by propidium iodide based flow cytometry (reference value: 19.9 %); type: functional
# MCF7 [29] = assay: Cell cycle arrest in human MCF7 cells assessed as accumulation in S phase at 5 times of antiproliferative IC50 incubated for 48 hrs by propidium iodide based flow cytometry (reference value: 34 %); type: functional
# MCF7 [30] = assay: Cell cycle arrest in human MCF7 cells assessed as accumulation in S phase at 5 times of antiproliferative IC50 incubated for 72 hrs by propidium iodide based flow cytometry (reference value: 19.8 %); type: functional
# [31] = Cell cycle arrest in human ALL5 cells assessed as accumulation in S phase at 5 times of antiproliferative IC50 incubated for 24 hrs by propidium iodide based flow cytometry (reference value: […]); type: functional
# [32] = Cell cycle arrest in human ALL5 cells assessed as accumulation in S phase at 5 times of antiproliferative IC50 incubated for 48 hrs by propidium iodide based flow cytometry (reference value: 10.3 %); type: functional
# [33] = Cell cycle arrest in human ALL5 cells assessed as accumulation in S phase at 5 times of antiproliferative IC50 incubated for 72 hrs by propidium iodide based flow cytometry (reference value: 13.5 %); type: functional
# Homo sapiens [34] = species on record: Homo sapiens; assay: Induction of apoptosis in human ALL5 cells assessed as reduction in 116 kDa PARP expression at 26.5 uM incubated for 24 and 48 hrs by immunoblot analysis; type: functional, cell-based
# Homo sapiens [35] = species on record: Homo sapiens; assay: Induction of apoptosis in human ALL5 cells assessed as increase in 85 kDa PARP expression at 26.5 uM incubated for 24 and 48 hrs by immunoblot analysis; type: functional, cell-based
# Homo sapiens [36] = species on record: Homo sapiens; assay: Induction of cell cycle arrest in human ALL5 cells assessed as increase in 4 N DNA at 5 times of antiproliferative IC50 incubated for 24 hrs by propidium iodide based flow cytometry; type: functional
# Homo sapiens [37] = species on record: Homo sapiens; assay: Induction of cell cycle arrest in human ALL5 cells assessed as increase in 4 N DNA at 5 times of antiproliferative IC50 incubated for 48 hrs by propidium iodide based flow cytometry; type: functional
# Homo sapiens [38] = species on record: Homo sapiens; assay: Induction of cell death in human ALL5 cells assessed as decrease in 4 N DNA at 5 times of antiproliferative IC50 incubated for 72 hrs by propidium iodide based flow cytometry; type: functional
# Homo sapiens [39] = species on record: Homo sapiens; assay: Induction of apoptosis in human ALL5 cells assessed as reduction in 116 kDa PARP expression at 0.2 uM incubated for 24 and 48 hrs by immunoblot analysis; type: functional, cell-based
# Homo sapiens [40] = species on record: Homo sapiens; assay: Induction of apoptosis in human ALL5 cells assessed as increase in 85 kDa PARP expression at 0.2 uM incubated for 24 and 48 hrs by immunoblot analysis; type: functional, cell-based
compound,measurement,setting,value
COCC(=O)N[C@H]1CCc2c(Br)c(OC)c(OC)c(OC)c2-c2ccc(SC)c(=O)cc21,IC50,[1],5.3 nM
same,IC50,A549,10.2 nM
same,IC50,MCF7 [2],11.4 nM
same,IC50,LoVo,7.6 nM
same,IC50,[3],71.2 nM
same,IC50,BALB/3T3,11.4 nM
same,Ratio IC50,[4],2.2
same,Ratio IC50,[5],1.1
same,selectivity ratio,[6],1
same,selectivity ratio,[7],1.5
same,selectivity ratio,[8],0.2
same,Ratio IC50,[9],9.3
same,Activity,[10],16.5%
same,Activity,[11],20.6%
same,Activity,[12],8.92%
same,Activity,[13],52.3%
same,Activity,[14],35%
same,Activity,[15],29.3%
same,Activity,[16],17.1%
same,Activity,[17],29.1%
same,Activity,[18],36.8%
same,Activity,MCF7 [19],74.7%
same,Activity,MCF7 [20],54.3%
same,Activity,MCF7 [21],65%
same,Activity,MCF7 [22],9.68%
same,Activity,MCF7 [23],11.9%
same,Activity,MCF7 [24],11.9%
same,Activity,MCF7 [25],6.3%
same,Activity,MCF7 [26],13.5%
same,Activity,MCF7 [27],15.1%
same,Activity,MCF7 [28],9.28%
same,Activity,MCF7 [29],20.3%
same,Activity,MCF7 [30],7.98%
same,Activity,[31],14.1%
same,Activity,[32],15.3%
same,Activity,[33],25%
same,Activity,Homo sapiens [34],Active
same,Activity,Homo sapiens [35],Active
same,Activity,Homo sapiens [36],Active
same,Activity,Homo sapiens [37],Active
same,Activity,Homo sapiens [38],Active
COc1cccc2c1C(=O)c1c(O)c3c(c(O)c1C2=O)C[C@@](O)(C(=O)CO)C[C@@H]3O[C@H]1C[C@H](N)[C@H](O)[C@H](C)O1 [DOXORUBICIN],IC50,[1],39.1 nM
same,IC50,A549,258 nM
same,IC50,BALB/3T3,166 nM
same,Activity,[10],22%
same,Activity,[11],5.52%
same,Activity,[12],9.99%
same,Activity,[13],66.3%
same,Activity,[14],67.6%
same,Activity,[15],36.5%
same,Activity,[16],1.55%
same,Activity,[17],21%
same,Activity,[18],36.6%
same,Activity,MCF7 [19],30.5%
same,Activity,MCF7 [20],32.4%
same,Activity,MCF7 [21],32.5%
same,Activity,MCF7 [22],47.3%
same,Activity,MCF7 [23],43.3%
same,Activity,MCF7 [24],35.1%
same,Activity,MCF7 [25],5.28%
same,Activity,MCF7 [26],6.08%
same,Activity,MCF7 [27],18.3%
same,Activity,MCF7 [28],16.9%
same,Activity,MCF7 [29],18.3%
same,Activity,MCF7 [30],14.1%
same,Activity,[31],7.16%
same,Activity,[32],2.77%
same,Activity,[33],16.9%
same,Activity,Homo sapiens [39],Active
same,Activity,Homo sapiens [40],Active
